From patent US12421225B2, “Heteroaromatic amide derivative and medicament containing the same” (KAKEN PHARMACEUTICAL CO., LTD., priority 2018, dated 2025) come the findings set out here.

For one data set, the target named is human Nav1.7 (Homo sapiens (Human), UniProt Q15858). Kind of data set: Human Nav1.7 inhibitory activity evaluation (automated patch clamp QPatch16X, HEK293A cells stably expressing human Nav1.7 and human Navβ1). The class given is cell-based. The conditions noted are these: human Nav1.7, automated patch clamp. An outline of the steps:
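QPatch16X whole-cell recordings at room temperature from HEK293A cells stably expressing human Nav1.7 with Navβ1, CsF-based internal solution, pH 7.4 external, 0.1% DMSO. From −100 mV holding, protocol included a 15 s hold at a potential inactivating ~30-40% of channels; IC50 from inward current at the second −10 mV pulse.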
Background: The patch-clamp technique gives a direct electrical read-out from membranes.

Another data set has as its target human Nav1.5 (Homo sapiens (Human), UniProt Q14524). Briefly: Human Nav1.5 inhibitory activity evaluation (automated patch clamp QPatch16X, HEK293 cells stably expressing human Nav1.5). The conditions noted are these: human Nav1.5, automated patch clamp. The class given is cell-based. An outline of the steps: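 Whole-cell automated patch clamp at room temperature on HEK293 stably expressing human Nav1.5; holding −80 mV, 20 consecutive cardiomyocyte action-potential-like test pulses before and after compound (0.1% DMSO). Inhibition measured on inward current at 20th pulse; IC50 from concentration-response curve.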

Sequence of human Nav1.5 (Q14524 whole entry): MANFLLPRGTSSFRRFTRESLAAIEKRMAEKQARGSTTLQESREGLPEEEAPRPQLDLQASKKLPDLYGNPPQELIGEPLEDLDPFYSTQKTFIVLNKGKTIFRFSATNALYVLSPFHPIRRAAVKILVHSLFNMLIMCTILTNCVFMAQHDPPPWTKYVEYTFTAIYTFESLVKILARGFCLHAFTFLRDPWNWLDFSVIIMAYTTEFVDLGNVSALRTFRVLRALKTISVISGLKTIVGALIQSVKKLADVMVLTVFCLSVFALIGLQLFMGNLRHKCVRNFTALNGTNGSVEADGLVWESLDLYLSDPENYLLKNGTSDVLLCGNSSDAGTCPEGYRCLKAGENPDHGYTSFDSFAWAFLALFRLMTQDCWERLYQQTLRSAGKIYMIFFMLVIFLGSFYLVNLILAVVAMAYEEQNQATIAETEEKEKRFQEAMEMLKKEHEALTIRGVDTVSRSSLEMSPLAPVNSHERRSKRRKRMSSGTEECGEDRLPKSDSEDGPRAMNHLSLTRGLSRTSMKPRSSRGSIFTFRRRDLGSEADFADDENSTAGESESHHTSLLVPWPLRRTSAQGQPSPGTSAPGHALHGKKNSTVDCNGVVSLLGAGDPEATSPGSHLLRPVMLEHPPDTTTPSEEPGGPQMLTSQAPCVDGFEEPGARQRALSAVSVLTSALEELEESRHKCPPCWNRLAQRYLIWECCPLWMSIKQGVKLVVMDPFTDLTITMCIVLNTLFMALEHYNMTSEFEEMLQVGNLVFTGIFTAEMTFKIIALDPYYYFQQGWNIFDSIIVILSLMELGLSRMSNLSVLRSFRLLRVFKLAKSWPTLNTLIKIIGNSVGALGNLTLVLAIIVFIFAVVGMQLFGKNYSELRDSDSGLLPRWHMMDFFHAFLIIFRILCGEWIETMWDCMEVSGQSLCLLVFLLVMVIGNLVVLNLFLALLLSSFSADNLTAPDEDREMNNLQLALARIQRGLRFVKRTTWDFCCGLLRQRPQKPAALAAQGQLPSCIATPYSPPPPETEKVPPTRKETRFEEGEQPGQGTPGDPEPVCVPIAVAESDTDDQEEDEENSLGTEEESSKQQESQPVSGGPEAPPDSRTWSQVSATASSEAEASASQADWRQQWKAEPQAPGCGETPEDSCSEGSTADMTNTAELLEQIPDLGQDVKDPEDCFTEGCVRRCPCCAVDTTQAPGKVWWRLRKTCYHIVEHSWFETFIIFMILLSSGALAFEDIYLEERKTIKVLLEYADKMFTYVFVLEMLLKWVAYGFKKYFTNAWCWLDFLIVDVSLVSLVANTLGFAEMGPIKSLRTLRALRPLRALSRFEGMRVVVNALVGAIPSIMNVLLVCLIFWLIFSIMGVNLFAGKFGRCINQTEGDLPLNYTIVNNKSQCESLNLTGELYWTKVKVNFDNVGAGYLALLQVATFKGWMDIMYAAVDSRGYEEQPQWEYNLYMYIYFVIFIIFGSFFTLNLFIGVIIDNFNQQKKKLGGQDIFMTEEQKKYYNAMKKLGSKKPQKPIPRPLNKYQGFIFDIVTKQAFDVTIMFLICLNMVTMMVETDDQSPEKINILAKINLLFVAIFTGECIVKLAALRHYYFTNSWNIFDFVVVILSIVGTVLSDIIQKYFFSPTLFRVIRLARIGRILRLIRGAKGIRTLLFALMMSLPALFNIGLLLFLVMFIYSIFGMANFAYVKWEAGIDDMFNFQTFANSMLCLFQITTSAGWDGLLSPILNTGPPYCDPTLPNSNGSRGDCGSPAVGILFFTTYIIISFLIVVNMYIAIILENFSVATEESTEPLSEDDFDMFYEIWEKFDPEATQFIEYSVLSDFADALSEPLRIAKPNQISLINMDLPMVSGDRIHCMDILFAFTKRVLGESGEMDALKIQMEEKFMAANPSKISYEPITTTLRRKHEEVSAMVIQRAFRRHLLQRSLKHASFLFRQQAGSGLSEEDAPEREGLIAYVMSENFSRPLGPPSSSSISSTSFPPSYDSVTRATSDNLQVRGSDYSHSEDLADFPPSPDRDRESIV
Sequence of human Nav1.7 (Q15858 whole entry): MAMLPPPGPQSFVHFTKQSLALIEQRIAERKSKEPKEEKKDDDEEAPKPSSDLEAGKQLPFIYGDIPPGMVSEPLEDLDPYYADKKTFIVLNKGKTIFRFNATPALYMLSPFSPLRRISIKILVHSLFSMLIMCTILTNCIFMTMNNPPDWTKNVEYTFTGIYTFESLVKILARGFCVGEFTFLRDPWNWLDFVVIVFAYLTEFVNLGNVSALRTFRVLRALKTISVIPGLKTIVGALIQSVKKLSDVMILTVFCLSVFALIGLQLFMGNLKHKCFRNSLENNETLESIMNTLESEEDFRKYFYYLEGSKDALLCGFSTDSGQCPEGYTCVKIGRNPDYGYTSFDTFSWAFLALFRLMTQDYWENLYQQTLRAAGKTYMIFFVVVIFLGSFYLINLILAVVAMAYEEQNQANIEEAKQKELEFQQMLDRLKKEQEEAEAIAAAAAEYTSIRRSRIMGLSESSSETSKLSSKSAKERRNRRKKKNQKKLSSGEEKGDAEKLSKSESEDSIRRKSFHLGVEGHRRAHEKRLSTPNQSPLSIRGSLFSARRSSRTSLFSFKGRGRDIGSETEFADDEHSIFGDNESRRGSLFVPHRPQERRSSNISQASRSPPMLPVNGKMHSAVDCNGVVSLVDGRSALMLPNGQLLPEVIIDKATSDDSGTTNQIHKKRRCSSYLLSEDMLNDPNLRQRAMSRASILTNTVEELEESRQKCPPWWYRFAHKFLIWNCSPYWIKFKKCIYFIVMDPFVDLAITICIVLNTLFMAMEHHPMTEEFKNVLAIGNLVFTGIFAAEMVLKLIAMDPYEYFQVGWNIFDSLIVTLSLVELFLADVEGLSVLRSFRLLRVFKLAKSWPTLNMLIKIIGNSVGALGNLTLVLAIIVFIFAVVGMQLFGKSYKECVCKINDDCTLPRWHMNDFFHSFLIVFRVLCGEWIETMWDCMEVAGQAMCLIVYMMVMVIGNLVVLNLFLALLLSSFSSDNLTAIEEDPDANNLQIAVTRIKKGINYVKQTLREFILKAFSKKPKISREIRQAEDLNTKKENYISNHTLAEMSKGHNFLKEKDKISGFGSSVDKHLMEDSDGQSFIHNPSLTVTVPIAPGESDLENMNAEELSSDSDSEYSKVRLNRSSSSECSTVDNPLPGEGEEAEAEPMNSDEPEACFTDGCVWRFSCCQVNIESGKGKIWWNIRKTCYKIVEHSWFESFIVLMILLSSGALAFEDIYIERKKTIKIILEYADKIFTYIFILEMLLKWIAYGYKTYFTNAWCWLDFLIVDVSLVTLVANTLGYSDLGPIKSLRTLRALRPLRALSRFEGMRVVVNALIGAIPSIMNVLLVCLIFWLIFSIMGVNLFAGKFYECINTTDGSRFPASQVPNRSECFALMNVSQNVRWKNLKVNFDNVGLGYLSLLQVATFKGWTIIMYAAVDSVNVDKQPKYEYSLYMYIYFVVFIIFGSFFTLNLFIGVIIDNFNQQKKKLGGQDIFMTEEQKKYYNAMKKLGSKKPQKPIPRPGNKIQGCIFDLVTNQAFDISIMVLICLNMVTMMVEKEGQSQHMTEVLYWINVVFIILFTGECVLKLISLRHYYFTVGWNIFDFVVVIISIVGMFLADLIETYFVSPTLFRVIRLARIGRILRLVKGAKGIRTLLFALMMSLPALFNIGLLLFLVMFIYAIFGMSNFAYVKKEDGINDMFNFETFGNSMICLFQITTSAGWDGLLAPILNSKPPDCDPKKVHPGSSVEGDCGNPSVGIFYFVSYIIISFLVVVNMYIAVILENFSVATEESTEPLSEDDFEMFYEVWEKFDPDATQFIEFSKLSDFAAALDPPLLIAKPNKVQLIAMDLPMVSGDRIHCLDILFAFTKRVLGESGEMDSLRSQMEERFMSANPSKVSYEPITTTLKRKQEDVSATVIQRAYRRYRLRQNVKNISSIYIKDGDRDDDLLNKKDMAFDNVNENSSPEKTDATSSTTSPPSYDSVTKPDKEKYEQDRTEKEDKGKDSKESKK
Sequence of human Nav1.7 (Q07699 19-218 partner): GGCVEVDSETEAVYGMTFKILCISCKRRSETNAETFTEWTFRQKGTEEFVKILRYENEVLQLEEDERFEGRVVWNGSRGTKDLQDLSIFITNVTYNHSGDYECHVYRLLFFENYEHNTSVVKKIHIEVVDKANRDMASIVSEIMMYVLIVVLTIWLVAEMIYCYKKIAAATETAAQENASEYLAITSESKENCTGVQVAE

As a reminder, the IC50 is the concentration at which inhibition is half-maximal. Read a low IC50 as inhibition by little substance. On to `O=C(N[C@H]1COc2ccc(CCN3CC(F)(F)C3)cc2C1)c1cc2n(n1)CCC(C(F)(F)F)O2` (some centres unmarked) [Example 401], for which the IC50 is less than 10000 nM against human Nav1.7 and no less than 3000 nM against human Nav1.5.
The matching figures for `O=C(N[C@H]1COc2ccc(C(F)(F)F)cc2C1)c1cc2n(n1)CCC(C#CC1CC1)O2` (some centres unmarked) [Example 402]: less than 1000 nM and no less than 3000 nM.
As for `N#Cc1ccc2c(c1)C[C@@H](NC(=O)c1cc3n(n1)CCC(COc1ccccn1)O3)CO2` (some centres unmarked) [Example 411], the IC50 on human Nav1.7 was less than 1000 nM; on human Nav1.5 it was no less than 3000 nM.
On the same counts, the results for `N#Cc1ccc2c(c1)C[C@@H](NC(=O)c1cc3n(n1)CCC(COCC(F)(F)C(F)(F)F)O3)CO2` (some centres unmarked) [Example 412] are less than 1000 nM and 1000 to 3000 nM.
Consider `N#Cc1ccc2c(c1)C[C@@H](NC(=O)c1cc3n(n1)CCC(CSCC(F)(F)F)O3)CO2` (some centres unmarked) [Example 422], for which the IC50 at human Nav1.7 is less than 10000 nM; at human Nav1.5, no less than 3000 nM.
With `O=C(N[C@H]1COc2ccc(-c3cnccn3)cc2C1)c1cc2n(n1)CCC(COCC1CC1)O2` (some centres unmarked) [Example 425], the results for the IC50 on human Nav1.7 and against human Nav1.5 were less than 1000 nM and no less than 3000 nM, respectively.
The matching figures for `Cn1ccc(-c2ccc3c(c2)C[C@@H](NC(=O)c2cc4n(n2)CCC(COCC2CC2)O4)CO3)n1` (some centres unmarked) [Example 426]: less than 10000 nM and no less than 3000 nM.
The matching figures for `O=C(N[C@H]1COc2ccc(-c3cscn3)cc2C1)c1cc2n(n1)CCC(COCC1CC1)O2` (some centres unmarked) [Example 427]: less than 1000 nM and 1000 to 3000 nM.
On to `O=C(N[C@H]1COc2ccc(-c3cncs3)cc2C1)c1cc2n(n1)CCC(COCC1CC1)O2` (some centres unmarked) [Example 428], for which the IC50 is less than 1000 nM at human Nav1.7 and no less than 3000 nM against human Nav1.5.
On the same counts, the results for `Cn1ncc(-c2ccc3c(c2)C[C@@H](NC(=O)c2cc4n(n2)CCC(COCC2CC2)O4)CO3)n1` (some centres unmarked) [Example 429] are less than 10000 nM and no less than 3000 nM.
As to `O=C(N[C@H]1COc2ccc(C(F)(F)F)cc2C1)c1cc2n(n1)CCC(COCC(F)(F)F)O2` (some centres unmarked) [Example 432], the results for the IC50 on human Nav1.7 and against human Nav1.5 were less than 1000 nM and 1000 to 3000 nM, respectively.
As for `O=C(N[C@H]1COc2ccc(CC(F)F)cc2C1)c1cc2n(n1)CCC(COC1CCC1)O2` (some centres unmarked) [Example 437], the IC50 was less than 1000 nM at human Nav1.7 and 1000 to 3000 nM against human Nav1.5.
On the same counts, the results for `O=C(N[C@H]1COc2ccc(CCOC(F)(F)F)cc2C1)c1cc2n(n1)CC(C(F)(F)F)O2` (some centres unmarked) [Example 447] are less than 1000 nM and no less than 3000 nM.
Regarding `O=C(N[C@H]1COc2ccc(Cl)cc2C1)c1cc2n(n1)CC(CNCC(F)(F)F)O2` (some centres unmarked) [Example 448], the IC50 on human Nav1.7 is less than 1000 nM; at human Nav1.5 it was 1000 to 3000 nM.
The matching figures for `N#Cc1ccc2c(c1)C[C@@H](NC(=O)c1cc3n(n1)CC(COc1ccccn1)O3)CO2` (some centres unmarked) [Example 450]: less than 10000 nM and no less than 3000 nM.
For the compound `O=C(N[C@H]1COc2ccc(Cl)cc2C1)c1cc2n(n1)CC(CCn1cccn1)O2` (some centres unmarked) [Example 451], the IC50 on human Nav1.7 was less than 1000 nM; against human Nav1.5 it was 1000 to 3000 nM.
The matching figures for `N#Cc1ccc2c(c1)C[C@@H](NC(=O)c1cc3n(n1)CC(COCC1CC1)O3)CO2` (some centres unmarked) [Example 454]: less than 10000 nM and no less than 3000 nM.
On the same counts, the results for `O=C(N[C@H]1COc2ccc(-c3cnccn3)cc2C1)c1cc2n(n1)CC(CCOCC(F)(F)F)O2` (some centres unmarked) [Example 456] are less than 1000 nM and 1000 to 3000 nM.
On the same counts, the results for `Cn1ccc(-c2ccc3c(c2)C[C@@H](NC(=O)c2cc4n(n2)CC(CCSCC(F)(F)F)O4)CO3)n1` (some centres unmarked) [Example 457] are less than 1000 nM and no less than 3000 nM.
On to `Cn1cc(-c2ccc3c(c2)C[C@@H](NC(=O)c2cc4n(n2)CC(CCOCC2CC2)O4)CO3)cn1` (some centres unmarked) [Example 460], for which the IC50 against human Nav1.7 was less than 1000 nM; on human Nav1.5 it was no less than 3000 nM.
The matching figures for `Cn1ccc(-c2ccc3c(c2)C[C@@H](NC(=O)c2cc4n(n2)CC(CCOCC2CC2)O4)CO3)n1` (some centres unmarked) [Example 461]: less than 1000 nM and 1000 to 3000 nM.
The matching figures for `O=C(N[C@H]1COc2ccc(CCOC(F)(F)F)cc2C1)c1cc2n(n1)CC(COC(F)F)O2` (some centres unmarked) [Example 462]: less than 1000 nM and no less than 3000 nM.
The matching figures for `N#Cc1ccc2c(c1)C[C@@H](NC(=O)c1cc3n(n1)CC(COCC1CCC1)O3)CO2` (some centres unmarked) [Example 464]: less than 1000 nM and no less than 3000 nM.
On to `O=C(N[C@H]1COc2ccc(CC(F)F)cc2C1)c1cc2n(n1)CC(CCOCC(F)(F)F)O2` (some centres unmarked) [Example 466], for which the half-inhibitory concentration (IC50) against human Nav1.7 was less than 1000 nM; at human Nav1.5 it was 1000 to 3000 nM.
In the case of `COc1ncc(-c2ccc3c(c2)C[C@@H](NC(=O)c2cc4n(n2)CC(COCC2CC2)O4)CO3)cn1` (some centres unmarked) [Example 468], the IC50 on human Nav1.7 is less than 1000 nM; on human Nav1.5, no less than 3000 nM.
On to `N#Cc1ccc2c(c1)C[C@@H](NC(=O)c1cc3n(n1)CC(CCOC1CCC1)O3)CO2` (some centres unmarked) [Example 470], for which the 50% inhibitory concentration (IC50) on human Nav1.7 is less than 1000 nM; at human Nav1.5, 1000 to 3000 nM.
On to `O=C(N[C@H]1COc2ccc(Cl)cc2C1)c1nn2c(c1-c1ccccc1)OCCCC2` [Example 481], for which the IC50 at human Nav1.7 was less than 1000 nM; at human Nav1.5, no less than 3000 nM.
Take `O=C(N[C@H]1COc2ccccc2C1)c1cc2n(n1)CCN(CC(F)(F)C(F)(F)F)C2` [Example 487]: the IC50 at human Nav1.7 is less than 1000 nM; on human Nav1.5 it was 1000 to 3000 nM.
Turning to `O=C(N[C@H]1COc2ccccc2C1)c1cc2n(n1)CCN(CC1CC(F)(F)C1)C2` [Example 488], the IC50 on human Nav1.7 is less than 10000 nM; on human Nav1.5, no less than 3000 nM.
For the compound `N#Cc1ccc2c(c1)C[C@@H](NC(=O)c1cc3n(n1)CCN(CC(F)(F)C(F)(F)F)C3)CO2` [Example 489], the IC50 on human Nav1.7 was less than 10000 nM; against human Nav1.5, no less than 3000 nM.
The matching figures for `O=C(N[C@H]1COc2ccccc2C1)c1cc2n(n1)CCN(CC(C1CC1)C1CC1)C2` [Example 490]: less than 10000 nM and no less than 3000 nM.
The matching figures for `N#Cc1ccc2c(c1)C[C@@H](NC(=O)c1cc3n(n1)CCN(CCC1CC1)C3)CO2` [Example 491]: less than 10000 nM and no less than 3000 nM.
`O=C(N[C@H]1COc2ccc(C(F)F)cc2C1)c1cc2n(n1)CCN(Cc1ccccn1)C2` [Example 492]: the IC50 is less than 10000 nM on human Nav1.7 and no less than 3000 nM against human Nav1.5.
The matching figures for `O=C(N[C@H]1COc2ccc(Cl)cc2C1)c1cc2n(n1)CCN(CC(C(F)(F)F)C(F)(F)F)C2` [Example 493]: less than 1000 nM and 1000 to 3000 nM.
Take `O=C(N[C@H]1COc2ccc(Cl)cc2C1)c1cc2n(n1)CCN(CC1CCC1(F)F)C2` (some centres unmarked) [Example 494]: the IC50 against human Nav1.7 was less than 1000 nM; against human Nav1.5, 1000 to 3000 nM.
The matching figures for `O=C(N[C@H]1COc2ccc(Cl)cc2C1)c1cc2n(n1)CCN(CC(F)(F)C1CC1)C2` [Example 495]: less than 1000 nM and no less than 3000 nM.
The matching figures for `N#Cc1ccc2c(c1)C[C@@H](NC(=O)c1cc3n(n1)CCN(CCC1CCC1)C3)CO2` [Example 496]: less than 1000 nM and 1000 to 3000 nM.
The matching figures for `N#Cc1ccc2c(c1)C[C@@H](NC(=O)c1cc3n(n1)CCN(Cc1ccccc1F)C3)CO2` [Example 497]: less than 1000 nM and no less than 3000 nM.
In the case of `N#Cc1ccc2c(c1)C[C@@H](NC(=O)c1cc3n(n1)CCN(Cc1ccccc1C(F)(F)F)C3)CO2` [Example 499], the half-maximal inhibitory concentration (IC50) on human Nav1.7 was less than 1000 nM; against human Nav1.5, 1000 to 3000 nM.
Regarding `CC(C)(CC1CC1)N1CCn2nc(C(=O)N[C@H]3COc4ccc(C#N)cc4C3)cc2C1` [Example 502], the IC50 against human Nav1.7 was less than 10000 nM; on human Nav1.5 it was 1000 to 3000 nM.
On the same counts, the results for `O=C(N[C@H]1COc2ccc(CC(F)F)cc2C1)c1cc2n(n1)CCN(CCC1CC1)C2` [Example 504] are less than 1000 nM and 1000 to 3000 nM.
For the compound `O=C(N[C@H]1COc2ccc(C(F)(F)F)cc2C1)c1cc2n(n1)CCN(CCC(F)(F)F)C2` [Example 506], the values for the IC50 against human Nav1.7 and at human Nav1.5 were less than 1000 nM and 1000 to 3000 nM, respectively.
On the same counts, the results for `O=C(N[C@H]1COc2ccc(COCC(F)(F)F)cc2C1)c1cc2n(n1)CCN(CCC(F)(F)F)C2` [Example 507] are less than 1000 nM and no less than 3000 nM.
On the same counts, the results for `Cn1ccc(-c2c(C(=O)N[C@H]3COc4ccc(C(F)(F)F)cc4C3)nn3c2COCC3)n1` [Example 518] are less than 1000 nM and 1000 to 3000 nM.
On the same counts, the results for `O=C(N[C@H]1COc2ccc(C(F)(F)F)cc2C1)c1nn2c(c1C(O)c1ccccn1)COCC2` (some centres unmarked) [Example 530] are less than 10000 nM and no less than 3000 nM.
Regarding `O=C(N[C@H]1COc2ccc(C(F)(F)F)cc2C1)c1nn2c(c1CCc1ccccn1)COCC2` [Example 531], the figures for the IC50 on human Nav1.7 and against human Nav1.5 were less than 10000 nM and 1000 to 3000 nM, respectively.
In the case of `N#CC1(COCC2CCn3nc(C(=O)N[C@H]4COc5ccc(Cl)cc5C4)cc3O2)CC1` (some centres unmarked) [Example 538], the IC50 at human Nav1.7 was less than 1000 nM; at human Nav1.5 it was no less than 3000 nM.
The matching figures for `CC(C)(F)C1CCn2nc(C(=O)N[C@H]3COc4ccc(C#N)cc4C3)cc2O1` (some centres unmarked) [Example 540]: less than 1000 nM and 1000 to 3000 nM.
Consider `N#Cc1ccc2c(c1)C[C@@H](NC(=O)c1cc3n(n1)CC(C(F)(F)COCC1CC1)O3)CO2` (some centres unmarked) [Example 541], for which the figures for the half-maximal inhibitory concentration (IC50) on human Nav1.7 and against human Nav1.5 were less than 1000 nM and no less than 3000 nM, respectively.
Regarding `CC1CCn2nc(C(=O)N[C@H]3COc4ccc(COCC(F)(F)F)cc4C3)cc2OC1` (some centres unmarked) [Example 543], the IC50 at human Nav1.7 was less than 10000 nM; on human Nav1.5, no less than 3000 nM.
Consider `COC1c2cc(C(F)(F)F)ccc2OC[C@@H]1NC(=O)c1cc2n(n1)CCC(C(F)F)O2` (some centres unmarked) [Example 568], for which the IC50 was less than 1000 nM against human Nav1.7 and no less than 3000 nM against human Nav1.5.
The matching figures for `O=C(N[C@H]1COc2ccc(C(F)(F)F)cc2C1O)c1cc2n(n1)CCN(CCC1CC1)C2` (some centres unmarked) [Example 593]: less than 10000 nM and 1000 to 3000 nM.
